The structures appear in SMILES notation.

For the assay, the target named is T1, CDK12 complexed with Cyclin K (Homo sapiens, UniProt Q9NYV4).
T1 construct: GST (N)
T1 sequence (Q9NYV4 whole entry): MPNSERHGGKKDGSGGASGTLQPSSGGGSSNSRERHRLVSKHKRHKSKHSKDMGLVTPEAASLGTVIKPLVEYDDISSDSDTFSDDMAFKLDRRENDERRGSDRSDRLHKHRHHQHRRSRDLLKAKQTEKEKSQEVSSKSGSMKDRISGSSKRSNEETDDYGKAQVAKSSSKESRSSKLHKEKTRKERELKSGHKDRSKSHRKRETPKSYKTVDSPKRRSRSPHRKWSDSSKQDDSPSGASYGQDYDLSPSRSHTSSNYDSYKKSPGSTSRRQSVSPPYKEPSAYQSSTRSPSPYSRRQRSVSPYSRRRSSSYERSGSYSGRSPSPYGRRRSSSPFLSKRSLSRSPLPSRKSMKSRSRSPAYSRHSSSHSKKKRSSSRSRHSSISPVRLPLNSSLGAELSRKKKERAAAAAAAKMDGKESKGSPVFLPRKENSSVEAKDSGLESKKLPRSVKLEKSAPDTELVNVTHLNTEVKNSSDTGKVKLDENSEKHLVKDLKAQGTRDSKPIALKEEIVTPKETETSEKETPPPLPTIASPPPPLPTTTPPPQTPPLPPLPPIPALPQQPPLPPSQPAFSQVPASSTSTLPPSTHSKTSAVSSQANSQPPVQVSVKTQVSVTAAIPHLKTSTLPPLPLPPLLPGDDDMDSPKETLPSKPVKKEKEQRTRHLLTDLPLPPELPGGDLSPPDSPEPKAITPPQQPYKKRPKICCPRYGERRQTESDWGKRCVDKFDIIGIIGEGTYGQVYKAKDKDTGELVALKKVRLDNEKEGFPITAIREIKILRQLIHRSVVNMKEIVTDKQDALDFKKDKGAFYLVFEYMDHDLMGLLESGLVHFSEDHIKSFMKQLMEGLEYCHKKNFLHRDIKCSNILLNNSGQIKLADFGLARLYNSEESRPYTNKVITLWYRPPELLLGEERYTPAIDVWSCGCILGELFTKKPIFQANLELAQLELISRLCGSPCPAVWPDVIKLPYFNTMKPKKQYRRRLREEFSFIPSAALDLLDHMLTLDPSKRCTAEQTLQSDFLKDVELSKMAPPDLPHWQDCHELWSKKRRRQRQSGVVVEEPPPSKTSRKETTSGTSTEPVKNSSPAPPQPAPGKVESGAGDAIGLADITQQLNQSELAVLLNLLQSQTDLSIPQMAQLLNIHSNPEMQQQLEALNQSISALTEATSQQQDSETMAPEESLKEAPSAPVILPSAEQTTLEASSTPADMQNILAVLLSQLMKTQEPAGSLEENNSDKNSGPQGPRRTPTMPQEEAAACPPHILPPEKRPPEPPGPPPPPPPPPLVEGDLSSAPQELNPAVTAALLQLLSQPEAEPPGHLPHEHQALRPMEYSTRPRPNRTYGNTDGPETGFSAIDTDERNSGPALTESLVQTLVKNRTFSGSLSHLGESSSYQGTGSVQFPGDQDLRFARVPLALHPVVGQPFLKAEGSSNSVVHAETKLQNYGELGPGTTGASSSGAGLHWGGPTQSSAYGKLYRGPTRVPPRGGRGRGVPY
T1 sequence (O75909 whole entry partner): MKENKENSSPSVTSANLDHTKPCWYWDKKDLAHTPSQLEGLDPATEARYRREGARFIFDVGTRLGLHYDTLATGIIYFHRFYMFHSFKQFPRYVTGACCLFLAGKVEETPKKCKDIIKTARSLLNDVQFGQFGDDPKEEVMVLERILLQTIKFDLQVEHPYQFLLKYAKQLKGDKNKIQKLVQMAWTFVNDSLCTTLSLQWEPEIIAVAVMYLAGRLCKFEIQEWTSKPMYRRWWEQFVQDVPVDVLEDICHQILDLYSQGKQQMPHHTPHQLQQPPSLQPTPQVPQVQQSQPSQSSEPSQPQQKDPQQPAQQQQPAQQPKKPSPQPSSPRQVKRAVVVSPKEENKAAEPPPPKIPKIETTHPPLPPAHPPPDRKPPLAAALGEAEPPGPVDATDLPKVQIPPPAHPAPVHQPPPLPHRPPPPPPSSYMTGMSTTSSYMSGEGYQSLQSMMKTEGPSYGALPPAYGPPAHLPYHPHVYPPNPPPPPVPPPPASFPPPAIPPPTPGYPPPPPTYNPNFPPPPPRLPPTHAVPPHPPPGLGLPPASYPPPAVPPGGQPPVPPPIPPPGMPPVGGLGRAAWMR
Put plainly: CDK Enzymatic Assays (HTRF, LANCE Ultra kinase assay), Example A1. The conditions noted are these: enzyme pre-incubated with compounds for 60 minutes prior to addition of ATP (1 mM final) and Ulight-peptide; reaction 60-90 minutes at room temperature. The class given is biochemical. An outline of the steps:
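N-terminal GST-tagged human CDK12 co-expressed with full-length Cyclin K (baculovirus), pre-incubated with compound 60 min, then 1 mM ATP and 50 nM ULight-4E-BP1 peptide added in HEPES pH 7.5 buffer; 60-90 min at room temperature. EDTA/Eu-antibody stop, HTRF 665/620 ratio normalized to controls; IC50 from 3- or 4-parameter fit.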
Turning to `CCC(Br)C(=O)Nc1nn(C)c2cc(N3CCC[C@@H](Nc4ncc(C#N)c(OC)n4)C3)ncc12` (stereo partly drawn) [Example 31, 2-Bromo-N-(6-((R)-3-((5-cyano-4-methoxypyrimidin-2-yl)amino)piperidin-1-yl)-1-methyl-1H-pyrazolo[4,3-c]pyridin-3-yl)butanamide], the concentration for half-maximal inhibition (IC50) is under 50 nM. To `C=CC(=O)Nc1ccc2c(c1)C(=O)N([C@H]1CCC[C@@H](Nc3ncc(C#N)c(C)n3)C1)C2` [Example 9, N-(2-((1S,3R)-3-((5-Cyano-4-methylpyrimidin-2-yl)amino)cyclohexyl)-3-oxoisoindolin-5-yl)acrylamide] belongs under 50 nM. The value for `C=CC(=O)Nc1ccc2nc(N3CC[C@@H](Nc4ncc(C#N)c(OC)n4)C3)nn2c1` [Example 45, (R)—N-(2-(3-((5-Cyano-4-methoxypyrimidin-2-yl)amino)pyrrolidin-1-yl)-[1,2,4]triazolo[1,5-a]pyridin-6-yl)acrylamide] was under 50 nM; that for `C=CC(=O)Nc1ccc2c(c1)C(=O)N([C@H]1CCC[C@@H](Nc3ncc(C(C)C)cn3)C1)C2` [Example 12, N-(2-((1S,3R)-3-((5-Isopropylpyrimidin-2-yl)amino)cyclohexyl)-3-oxoisoindolin-5-yl)acrylamide] was under 50 nM.

Consider `C=CC(=O)Nc1ccc2sc(N3CCC[C@@H](Nc4ncc(C#N)c(OC)n4)C3)nc2c1` [Example 40, (R)—N-(2-(3-((5-Cyano-4-methoxypyrimidin-2-yl)amino)piperidin-1-yl)benzo[d]thiazol-5-yl)acrylamide], for which the IC50 was under 50 nM. `C=CC(=O)Nc1ccc2c(c1)nc(N1CC[C@H](F)[C@@H](Nc3ncc(C(F)(F)F)cn3)C1)n2C` [Example 91, N-(2-((3S,4S)-4-Fluoro-3-((5-(trifluoromethyl)pyrimidin-2-yl)amino)piperidin-1-yl)-1-methyl-1H-benzo[d]imidazol-5-yl)acrylamide]: the IC50 is under 50 nM.

In the case of `C=CC(=O)Nc1ccc2c(c1)C(=O)N([C@H]1CCC[C@@H](Nc3ncc(C#N)c(NC)n3)C1)C2` [Example 67, N-(2-((1S,3R)-3-((5-Cyano-4-(methylamino)pyrimidin-2-yl)amino)cyclohexyl)-3-oxoisoindolin-5-yl)acrylamide], the IC50 was under 50 nM. As for `COc1nc(N[C@@H]2CCCN(c3cc4c(cn3)c(NC(=O)CCl)nn4C)C2)ncc1C#N` [Example 33, (R)-2-Chloro-N-(6-(3-((5-cyano-4-methoxypyrimidin-2-yl)amino)piperidin-1-yl)-1-methyl-1H-pyrazolo[4,3-c]pyridin-3-yl)acetamide], the 50% inhibitory concentration (IC50) was under 50 nM.

Regarding `C=CC(=O)Nc1ccc2c(c1)nc([C@H]1CCC[C@@H](Nc3ncc(C#N)c(OC)n3)C1)n2CCO` [Example 47, N-(2-((1S,3R)-3-((5-Cyano-4-methoxypyrimidin-2-yl)amino)cyclohexyl)-1-(2-hydroxyethyl)-1H-benzo[d]imidazol-5-yl)acrylamide], the half-maximal inhibitory concentration (IC50) was under 50 nM. On to `COc1nc(N[C@@H]2CCC[C@H](N3Cc4ccc(NC(=O)CCl)cc4C3=O)C2)ncc1C#N` [Example 59, 2-Chloro-N-(2-((1S,3R)-3-((5-cyano-4-methoxypyrimidin-2-yl)amino)cyclohexyl)-3-oxoisoindolin-5-yl)acetamide], for which the IC50 is under 50 nM. `C=CC(=O)Nc1ccc2c(c1)nc(N1CCC(F)(F)[C@@H](Nc3ncc(C(F)(F)F)cn3)C1)n2C` [Example 92, (S)—N-(2-(4,4-Difluoro-3-((5-(trifluoromethyl)pyrimidin-2-yl)amino)piperidin-1-yl)-1-methyl-1H-benzo[d]imidazol-5-yl)acrylamide]: the IC50 is under 50 nM. The value for `C=CC(=O)Nc1ccc2c(c1)C(=O)N([C@H]1CCC[C@@H](Nc3ncc(CC)cn3)C1)C2` [Example 10, N-(2-((1S,3R)-3-((5-Ethylpyrimidin-2-yl)amino)cyclohexyl)-3-oxoisoindolin-5-yl)acrylamide] was under 50 nM.

Values taken from patent US12643881B2, “Bicyclic amine CDK12 inhibitors” (Incyte Corporation, priority 2021, dated 2026).
